# pIC50: −log10 of the molar value.
# Assays:
# Experiment in all cases: Cellular proliferation and viability, CRC cell line panel
# Format in all cases: cell-based, human
# SW48 cells = conditions: KRAS WT, BRAF WT, APC WT, CTNNB1 S33Y, 3 days post-treatment
# Description: (§1) (A) IC50 values (μM) for effects on cellular proliferation and viability with the TAK1 kinase inhibitor 5z-7-oxozeaenol in a panel of colon cancer cell lines that have been genotyped as KRAS mutant (KRAS-independent—circles or KRAS-dependent—squares), BRAF mutant (triangles) or wild-type for both KRAS and BRAF (OTHER—diamonds). Effects on growth were measured 3 days post-treatment. Data are represented as the mean of 3 independent experiments and error bars indicate the median±interquartile range. *denotes p<0.00001; n.s.—not significant.
# (§2) To further validate TAK1 as a candidate therapeutic target in this context, a potent and selective TAK1 kinase inhibitor, 5Z-7-oxozeaenol (Rawlins et al., 1999), was used. Sensitivity to 5Z-7-oxozeaenol was tested in a panel of 47 colon cancer cell lines with various genotypes (FIGS. 3A and 9A). KRAS and BRAF genotypes were either procured from the Sanger Institute's Catalog of Somatic Mutations (COSMIC) or determined by targeted resequencing (Table 2). KRAS mutation status was determined as described above; the same methods were used to determine the mutation states of BRAF. BRAF exon15 was sequenced with TCATAATGCTTGCTCTGATAGGA (forward; SEQ ID NO:3) and GGCCAAAAATTTAATCAGTGG (reverse; SEQ ID NO:4).
# CCK-81 cells = conditions: KRAS WT, BRAF WT, 3 days post-treatment
# Description: as §1, §2
# H630 cells = conditions: KRAS WT, BRAF WT, APC del, CTNNB1 WT, 3 days post-treatment
# Description: as §1, §2
# CL-11 cells = conditions: KRAS V14I (KRAS-dependent), BRAF WT, CTNNB1 WT, 3 days post-treatment
# Description: as §1, §2
# Gp5D cells = conditions: KRAS G12D (KRAS-dependent), BRAF WT, APC del, CTNNB1 WT, 3 days post-treatment
# Description: as §1, §2
# COLO-205 cells = conditions: KRAS WT, BRAF V600E, APC del, CTNNB1 WT, 3 days post-treatment
# Description: as §1, §2
# C2BBe1 cells = conditions: KRAS WT, BRAF WT, APC del, CTNNB1 WT, 3 days post-treatment
# Description: as §1, §2
# SW948 cells = conditions: KRAS Q61L, BRAF WT, APC del, CTNNB1 WT, 3 days post-treatment
# Description: as §1, §2
# SW1463 cells = conditions: KRAS G12C, BRAF WT, APC del, CTNNB1 WT, 3 days post-treatment
# Description: as §1, §2
# HCT-116 cells = conditions: KRAS G13D, BRAF WT, APC WT, CTNNB1 S45del, 3 days post-treatment
# Description: as §1, §2
# HT55 cells = conditions: KRAS WT, BRAF WT, APC del, CTNNB1 WT, 3 days post-treatment
# Description: as §1, §2
# WiDR cells = conditions: KRAS WT, BRAF V600E, APC del, CTNNB1 WT, 3 days post-treatment
# Description: as §1, §2
# HCT-8 cells = conditions: KRAS G13D, BRAF WT, APC del, CTNNB1 WT, 3 days post-treatment
# Description: as §1, §2
# HCC56 cells = conditions: KRAS G12V, BRAF WT, 3 days post-treatment
# Description: as §1, §2
# RKO cells = conditions: KRAS WT, BRAF V600E, APC del, CTNNB1 WT, 3 days post-treatment
# Description: as §1, §2
# COLO-206F cells = conditions: KRAS WT, BRAF V600E, 3 days post-treatment
# Description: as §1, §2
# SW837 cells = conditions: KRAS G12C, BRAF WT, APC del, CTNNB1 WT, 3 days post-treatment
# Description: as §1, §2
# CoCM-1 cells = conditions: KRAS WT, BRAF WT, APC WT, CTNNB1 WT, 3 days post-treatment
# Description: as §1, §2
# MDST8 cells = conditions: KRAS WT, BRAF V600K, APC nd, CTNNB1 WT, 3 days post-treatment
# Description: as §1, §2
# SW1116 cells = conditions: KRAS G12A (KRAS-dependent), BRAF WT, APC del, CTNNB1 WT, 3 days post-treatment
# Description: as §1, §2
# OUMS-23 cells = conditions: KRAS WT, BRAF WT, 3 days post-treatment
# Description: as §1, §2
# LS-174T cells = conditions: KRAS G12D, BRAF WT, APC WT, CTNNB1 S45A, 3 days post-treatment
# Description: as §1, §2
# SW1417 cells = conditions: KRAS WT, BRAF V600E, APC del, CTNNB1 WT, 3 days post-treatment
# Description: as §1, §2
# CL-34 cells = conditions: KRAS WT, BRAF V600E, 3 days post-treatment
# Description: as §1, §2
# HT115 cells = conditions: KRAS WT, BRAF WT, APC WT, CTNNB1 WT, 3 days post-treatment
# Description: as §1, §2
# C170 cells = conditions: KRAS G13D (KRAS-dependent), BRAF WT, CTNNB1 WT, 3 days post-treatment
# Description: as §1, §2
# HT29 cells = conditions: KRAS WT, BRAF V600E, APC del, CTNNB1 WT, 3 days post-treatment
# Description: as §1, §2
# Hs 1.Int cells = conditions: KRAS WT, BRAF WT, 3 days post-treatment
# Description: as §1, §2
# LS-180 cells = conditions: KRAS G12D, BRAF WT, APC WT, CTNNB1 S45A, 3 days post-treatment
# Description: as §1, §2
# SKCO1 cells = conditions: KRAS G12V (KRAS-dependent), BRAF WT, APC del, CTNNB1 WT, 3 days post-treatment
# Description: as §1, §2
smiles,measurement,setting,value
COc1cc(O)c2c(c1)/C=C/C[C@H](O)[C@H](O)C(=O)/C=C\C[C@H](C)OC2=O [5Z-7-oxozeaenol],pIC50,SW48 cells,5.71
same,pIC50,CCK-81 cells,6.39
same,pIC50,H630 cells,5.35
same,pIC50,CL-11 cells,5.94
same,pIC50,Gp5D cells,5.75
same,pIC50,COLO-205 cells,5.88
same,pIC50,C2BBe1 cells,5.03
same,pIC50,SW948 cells,5.63
same,pIC50,SW1463 cells,5.62
same,pIC50,HCT-116 cells,5.62
same,pIC50,HT55 cells,5.81
same,pIC50,WiDR cells,5.61
same,pIC50,HCT-8 cells,4.32
same,pIC50,HCC56 cells,5.63
same,pIC50,RKO cells,5.96
same,pIC50,COLO-206F cells,6.29
same,pIC50,SW837 cells,5.23
same,pIC50,CoCM-1 cells,6.03
same,pIC50,MDST8 cells,6.65
same,pIC50,SW1116 cells,6.91
same,pIC50,OUMS-23 cells,4.32
same,pIC50,LS-174T cells,5.21
same,pIC50,SW1417 cells,5.91
same,pIC50,CL-34 cells,6.31
same,pIC50,HT115 cells,5.88
same,pIC50,C170 cells,5.97
same,pIC50,HT29 cells,5.10
same,pIC50,Hs 1.Int cells,5.25
same,pIC50,LS-180 cells,5.17
same,pIC50,SKCO1 cells,7.59

# Source: US20140243403A1, “TREATING COLORECTAL, PANCREATIC, AND LUNG CANCER” (The General Hospital Corporation, priority 2011, published 2014)
